Laboratory results taken from patent US4308267A, “7-[2-Alkoxyimino-2-(amino-thiazole)acetami do]-3-[1-(sulfaminoalkly)tetrazolthiomethyl]cephalosporins” (SmithKline Corporation, priority 1980, dated 1981).
Values after ≈ are worked out from the molar mass of the structure shown. Counter-ions that a name gives are not always drawn.

Key:
in vitro = in vitro ADME; conditions: human serum proteins; read-out: Binding to Human Serum Proteins (converted)
E. coli SK&F 12140 = experiment: minimum inhibitory concentration, in vitro screen (Table I, strain 5); assay type: cell-based; conditions: Escherichia coli
Excerpt: (§1) The compounds of this invention are useful as broad spectrum antibacterial agents against both Gram-positive and Gram-negative organisms. […] Data for 7-[syn-2-methoxyimino-2-(2-amino-4-thiazolyl)acetamido]cephalosporanic acid (cefatoxime) are also included for comparison.

P. mirabilis PM-444 = experiment: minimum inhibitory concentration, in vitro screen (Table I, strain 10); assay type: cell-based; conditions: Proteus mirabilis, PM444
Excerpt: as §1

Staph. aureus 671 = experiment: minimum inhibitory concentration, in vitro screen (Table I, strain 2); assay type: cell-based; conditions: Staphylococcus aureus; Staph. aureus 671, lactamase producer
Excerpt: as §1

[1] = system: Enterobacter aerogenes ATCC 13048; experiment: minimum inhibitory concentration, in vitro screen (Table I, strain 14); assay type: cell-based; conditions: Klebsiella aerogenes, ATCC13048
Excerpt: as §1

Kleb. pneumoniae 982 = experiment: minimum inhibitory concentration, in vitro screen (Table I, strain 9); assay type: cell-based; conditions: Klebsiella pneumoniae; Kleb. pneumoniae 982, lactamase producer
Excerpt: as §1

E. coli 804 = experiment: minimum inhibitory concentration, in vitro screen (Table I, strain 6); assay type: cell-based; conditions: Escherichia coli; E. coli 804, lactamase producer
Excerpt: as §1

Enterobacter cloacae 921 = experiment: minimum inhibitory concentration, in vitro screen (Table I, strain 15); assay type: cell-based
Excerpt: as §1

Staph. aureus HH 127 = experiment: minimum inhibitory concentration, in vitro screen (Table I, strain 1); assay type: cell-based; conditions: Staphylococcus aureus, HH127; Staph. aureus HH 127, lactamase producer
Excerpt: as §1

Pseudo. aeruginosa 647 = experiment: minimum inhibitory concentration, in vitro screen (Table I, strain 16); assay type: cell-based; conditions: Pseudomonas aeruginosa
Excerpt: as §1

Proteus morgani 179 = experiment: minimum inhibitory concentration, in vitro screen (Table I, strain 13); assay type: cell-based
Excerpt: as §1

Pseudo. aeruginosa HH 63 = experiment: minimum inhibitory concentration, in vitro screen (Table I, strain 11); assay type: cell-based; conditions: Pseudomonas aeruginosa, HH63
Excerpt: as §1

[2] = system: Kleb. pneumoniae SK&F 1200; experiment: minimum inhibitory concentration, in vitro screen (Table I, strain 8); assay type: cell-based; conditions: Klebsiella pneumoniae
Excerpt: as §1

[3] = pharmacokinetics in mouse (Table 3); assay type: in vivo; conditions: for half-life: in vivo; for half-life / concentration at 2 h / Cmax / dose excreted: mouse, 20 mg/kg; for concentration at 2 h / Cmax: serum; for concentration at 2 h: read-out: Serum Level at 2 hrs.; for Cmax: read-out: Peak Serum Level; for dose excreted: urine, read-out: Urinary Recovery
Strep. faecalis HH 34358 = experiment: minimum inhibitory concentration, in vitro screen (Table I, strain 4); assay type: cell-based; conditions: Enterococcus faecalis, HH34358
Excerpt: as §1

E. coli 12140 = experiment: standard in vivo antibacterial test in mice, ED50 (Table 2); conditions: Escherichia coli
Excerpt: (§2) Table 2 sets forth ED50 's for Compound A, cefamandole and cefatoxime.

S. aureus HH 127 = experiment: as above; conditions: Staphylococcus aureus
Excerpt: as §2

[4] = system: Kleb. pneumoniae SK&F 4200; experiment: minimum inhibitory concentration, in vitro screen (Table I, strain 7); assay type: cell-based; conditions: Klebsiella pneumoniae
Excerpt: as §1

Staph. aureus 674 = experiment: minimum inhibitory concentration, in vitro screen (Table I, strain 3); assay type: cell-based; conditions: Staphylococcus aureus
Excerpt: as §1

[5] = system: Serratia marcescens ATCC 13880; experiment: minimum inhibitory concentration, in vitro screen (Table I, strain 12); assay type: cell-based; conditions: ATCC13880
Excerpt: as §1

[6] = system: Gram-negative bacteria including those which are β-lactamase producers; experiment: standard in vitro screens (general statement); assay type: cell-based; conditions: especially against Gram-negative bacteria including β-lactamase producers
Excerpt: as §1

bacterial infections = experiment: standard in vivo tests in mice (general statement)
Excerpt: as §2

SMILES	fraction unbound (in vitro)	MIC (E. coli SK&F 12140) [µg/mL]	MIC (P. mirabilis PM-444) [µg/mL]	MIC (Staph. aureus 671) [µg/mL]	MIC [1] [µg/mL]	MIC (Kleb. pneumoniae 982) [µg/mL]	MIC (E. coli 804) [µg/mL]	MIC (Enterobacter cloacae 921) [µg/mL]	MIC (Staph. aureus HH 127) [µg/mL]	MIC (Pseudo. aeruginosa 647) [µg/mL]	MIC (Proteus morgani 179) [µg/mL]	MIC (Pseudo. aeruginosa HH 63) [µg/mL]	MIC [2] [µg/mL]	half-life [3] [min]	concentration at 2 h [3] [ng/mL]	Cmax [3] [ng/mL]	dose excreted [3] [%]	MIC (Strep. faecalis HH 34358) [µg/mL]	MIC [4] [µg/mL]	MIC (Staph. aureus 674) [µg/mL]	further results
Cn1nnnc1SCC1=C(C(=O)O)N2C(=O)[C@@H](NC(=O)[C@H](O)c3ccccc3)[C@H]2SC1 [Cefamandole]	0.39	0.8 (≈ 1.73 µM)	0.4 (≈ 0.865 µM)	6.3 (≈ 13.6 µM)	1.6 (≈ 3.46 µM)	> 100	> 100	3.1 (≈ 6.7 µM)	1.6 (≈ 3.46 µM)	> 100	1.6 (≈ 3.46 µM)	> 100	0.4 (≈ 0.865 µM)	12	1000	34000	45	25 (≈ 54.1 µM)	1.6 (≈ 3.46 µM)	≤ 0.1	ED50 (E. coli 12140; * representative value): 0.9 mg/kg; ED50 (S. aureus HH 127; HH127, * representative value): 2.2 mg/kg; MIC [5]: 12.5 µg/mL (≈ 27 µM)
CO/N=C(\C(=O)N[C@@H]1C(=O)N2C(C(=O)O)=C(COC(C)=O)CS[C@H]12)c1csc(N)n1 [Cefatoxime, 7-[syn-2-methoxyimino-2-(2-amino-4-thiazolyl)acetamido]cephalosporanic acid]	0.61	≤ 0.1	≤ 0.1	0.4 (≈ 0.878 µM)	≤ 0.1	0.2 (≈ 0.439 µM)	0.2 (≈ 0.439 µM)	≤ 0.1	1.6 (≈ 3.51 µM)	3.1 (≈ 6.81 µM)	≤ 0.1	6.3 (≈ 13.8 µM)	≤ 0.1	27	< 1000	25000	13	> 100	≤ 0.1	0.8 (≈ 1.76 µM)	ED50 (E. coli 12140): < 0.2 mg/kg; ED50 (S. aureus HH 127; HH127): 10.5 mg/kg; MIC [5]: ≤ 0.1 µg/mL
CO/N=C(\C(=O)N[C@@H]1C(=O)N2C(C(=O)O)=C(CSc3nnnn3CCNS(=O)(=O)O)CS[C@H]12)c1csc(N)n1 [Compound A, 7-[syn-2-methoxyimino-2-(2-amino-4-thiazolyl)acetamido]-3-[1-(2-sulfaminoethyl)tetrazo-5-ylthiomethyl]-3-cephem-4-carboxylic acid disodium salt]	0.3	≤ 0.1	≤ 0.1	3.1	0.2	1.6	0.4	0.2	6.3	6.3	≤ 0.1	12.5	≤ 0.1	114	52000	78000	24	> 100	≤ 0.1	6.3	activity in standard in vitro screens [6]: high activity; peak serum levels, serum levels at two hours and half-life ([3]; compared to cefatoxime and cefamandole): better for Compound A compared to cefatoxime and cefamandole; pharmacokinetic properties ([3]; general statement): unexpected improved pharmacokinetic properties; antibacterial activity in standard in vivo tests (bacterial infections): high antibacterial activity; ED50 (E. coli 12140): 0.4 mg/kg; ED50 (S. aureus HH 127; HH127): 21 mg/kg; MIC [5]: ≤ 0.1 µg/mL
